In experiment [1] the target is Tyrosine-protein kinase Yes (Homo sapiens) (UniProt P07947). As to the kind of experiment: Inhibition of recombinant full-length human Yes at 1 uM assessed as residual activity at 1 uM using poly(Glu, Tyr) 4:1 as substrate measured after 40 mins in presence of [gamma33P]ATP by scintillation counting method relative to control.
The target of experiment [2] is Testis-specific serine/threonine-protein kinase 3 (Homo sapiens) (UniProt Q96PN8). Description: Inhibition of recombinant full-length human TSSK3 at 1 uM assessed as residual activity at 1 uM using AMARAASAAALARRR as substrate measured after 40 mins in presence of [gamma33P]ATP by scintillation counting method relative to control.
Chain of Testis-specific serine/threonine-protein kinase 3 (Homo sapiens) (Q96PN8 whole entry): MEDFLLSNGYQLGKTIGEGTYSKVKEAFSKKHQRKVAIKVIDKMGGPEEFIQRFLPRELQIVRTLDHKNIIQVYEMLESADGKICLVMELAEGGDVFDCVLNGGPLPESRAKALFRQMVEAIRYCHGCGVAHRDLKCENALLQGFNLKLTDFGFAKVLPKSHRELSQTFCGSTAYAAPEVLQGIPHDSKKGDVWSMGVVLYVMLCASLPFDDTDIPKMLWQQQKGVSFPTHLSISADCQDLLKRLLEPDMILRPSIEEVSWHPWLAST
Experiment [3] concerns the target Tyrosine-protein kinase Fyn (Homo sapiens) (UniProt P06241). Description: Inhibition of recombinant full length human Fyn assessed as residual activity at 1 uM using KVEKIGEGTYGVVYK as substrate at 40 mins in presence of [gamma-33ATP] by scintillation counting based radiometry assay relative to control.
Experiment [4] addresses Rhodopsin kinase GRK7 (Homo sapiens) (UniProt Q8WTQ7). As to the kind of experiment: Inhibition of recombinant full length human GRK7 assessed as residual activity at 1 uM using casein as substrate at 40 mins in presence of [gamma-33ATP] by scintillation counting based radiometry assay relative to control.
In experiment [5] the test system is CDK18/Cyclin Y (Homo sapiens), Q07002+Q8ND76 [T166M]. As to the kind of experiment: Inhibition of recombinant full length human CDK18 /cyclinY T166M mutant assessed as residual activity at 1 uM using YRRAAVPPSPSLS as substrate incubated for 40 mins in presence of [gamma-33ATP] by scintillation counting based radiometry assay relative to control. It counts as protein-complex assay.

For experiment [6], the target named is T1, cGMP-dependent protein kinase 1 (Homo sapiens) (UniProt Q13976).
T1 sequence (whole entry): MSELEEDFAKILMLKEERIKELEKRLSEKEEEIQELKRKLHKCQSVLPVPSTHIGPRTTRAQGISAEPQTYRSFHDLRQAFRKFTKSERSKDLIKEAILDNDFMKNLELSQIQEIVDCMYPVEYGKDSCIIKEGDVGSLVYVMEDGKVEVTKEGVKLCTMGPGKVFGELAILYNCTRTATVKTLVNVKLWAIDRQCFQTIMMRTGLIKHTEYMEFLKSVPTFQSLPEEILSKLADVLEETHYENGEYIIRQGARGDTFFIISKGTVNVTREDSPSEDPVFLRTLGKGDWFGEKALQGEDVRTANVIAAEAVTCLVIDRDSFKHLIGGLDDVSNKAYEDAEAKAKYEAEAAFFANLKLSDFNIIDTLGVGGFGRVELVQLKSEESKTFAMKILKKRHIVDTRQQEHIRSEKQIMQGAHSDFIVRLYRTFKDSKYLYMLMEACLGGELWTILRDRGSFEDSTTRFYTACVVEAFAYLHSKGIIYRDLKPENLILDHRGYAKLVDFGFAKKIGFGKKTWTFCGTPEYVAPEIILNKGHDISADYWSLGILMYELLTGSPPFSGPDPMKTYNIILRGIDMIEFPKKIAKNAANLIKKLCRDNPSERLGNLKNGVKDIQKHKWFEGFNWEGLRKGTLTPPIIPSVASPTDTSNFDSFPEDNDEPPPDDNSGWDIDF
As to the kind of experiment: Inhibition of recombinant full-length human PKG1beta assessed as residual activity at 1 uM using RRRLSFAEPG as substrate measured after 40 mins in presence of [gamma33P]ATP by scintillation counting method relative to control.

Experiment [7] addresses BDNF/NT-3 growth factors receptor (Homo sapiens) (UniProt Q16620). As to the kind of experiment: Inhibition of human TrkB (455 to end residues) assessed as residual activity at 1 uM using poly(Glu, Tyr) 4:1 as substrate measured after 40 mins in presence of [gamma33P]ATP by scintillation counting method relative to control.
Experiment [8] concerns the target ALK tyrosine kinase receptor (Homo sapiens) (UniProt Q9UM73). As to the kind of experiment: Inhibition of human ALK (1058 to end residues) assessed as residual activity at 1 uM using KKKSPGEYVNIEFG as substrate incubated for 40 mins in presence of [gamma-33ATP] by scintillation counting based radiometry assay relative to control.
Experiment [9] has as its target Serine/threonine-protein kinase tousled-like 2 (Homo sapiens) (UniProt Q86UE8). Description: Inhibition of human TLK2 (387 to end residues) assessed as residual activity at 1 uM using casein as substrate measured after 40 mins in presence of [gamma33P]ATP by scintillation counting method relative to control.
The test system of experiment [10] is Mast/stem cell growth factor receptor Kit (Homo sapiens), P10721 [D816H]. Description: Inhibition of recombinant human C-Kit D816H mutant (544 to end residues) assessed as residual activity at 1 uM poly(Glu, Tyr) 4:1 as substrate incubated 40 mins in presence of [gamma-33ATP] by scintillation counting based radiometry assay relative to control.
Chain of Mast/stem cell growth factor receptor Kit (Homo sapiens), P10721 [D816H] (P10721 whole entry D816H): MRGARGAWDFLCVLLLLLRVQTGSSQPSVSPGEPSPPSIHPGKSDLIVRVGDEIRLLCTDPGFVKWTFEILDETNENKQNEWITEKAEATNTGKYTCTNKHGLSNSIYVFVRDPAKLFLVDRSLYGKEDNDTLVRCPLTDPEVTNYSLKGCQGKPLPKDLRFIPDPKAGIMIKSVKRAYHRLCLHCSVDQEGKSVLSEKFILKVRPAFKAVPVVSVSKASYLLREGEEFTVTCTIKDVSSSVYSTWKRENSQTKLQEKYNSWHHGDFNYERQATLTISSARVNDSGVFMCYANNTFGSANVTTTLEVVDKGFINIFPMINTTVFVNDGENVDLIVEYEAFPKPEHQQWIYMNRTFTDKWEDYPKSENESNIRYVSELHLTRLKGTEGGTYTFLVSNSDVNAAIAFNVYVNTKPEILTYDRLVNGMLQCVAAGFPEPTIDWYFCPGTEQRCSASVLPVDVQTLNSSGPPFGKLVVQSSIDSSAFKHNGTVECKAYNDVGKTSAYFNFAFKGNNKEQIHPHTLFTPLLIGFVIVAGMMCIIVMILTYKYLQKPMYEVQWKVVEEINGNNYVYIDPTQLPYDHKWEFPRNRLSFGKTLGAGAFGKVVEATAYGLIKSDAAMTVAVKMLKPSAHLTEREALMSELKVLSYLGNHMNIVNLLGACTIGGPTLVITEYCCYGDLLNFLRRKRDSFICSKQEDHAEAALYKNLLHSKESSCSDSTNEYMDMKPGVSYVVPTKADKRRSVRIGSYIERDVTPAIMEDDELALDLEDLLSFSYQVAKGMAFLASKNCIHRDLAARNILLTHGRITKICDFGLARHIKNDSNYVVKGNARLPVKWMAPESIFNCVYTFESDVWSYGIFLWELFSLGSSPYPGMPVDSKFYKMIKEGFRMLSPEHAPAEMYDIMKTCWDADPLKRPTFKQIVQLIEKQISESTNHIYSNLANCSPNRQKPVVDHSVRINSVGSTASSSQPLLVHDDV
The target of experiment [11] is Serine/threonine-protein kinase pim-2 (Homo sapiens) (UniProt Q9P1W9). Description: Inhibition of recombinant human Pim2 (2 to end residues) assessed as residual activity at 1 uM using RSRHSSYPAGT as substrate measured after 40 mins in presence of [gamma33P]ATP by scintillation counting method relative to control.
Chain of Serine/threonine-protein kinase pim-2 (Homo sapiens) (Q9P1W9 whole entry, looked up, the tested form may be a part): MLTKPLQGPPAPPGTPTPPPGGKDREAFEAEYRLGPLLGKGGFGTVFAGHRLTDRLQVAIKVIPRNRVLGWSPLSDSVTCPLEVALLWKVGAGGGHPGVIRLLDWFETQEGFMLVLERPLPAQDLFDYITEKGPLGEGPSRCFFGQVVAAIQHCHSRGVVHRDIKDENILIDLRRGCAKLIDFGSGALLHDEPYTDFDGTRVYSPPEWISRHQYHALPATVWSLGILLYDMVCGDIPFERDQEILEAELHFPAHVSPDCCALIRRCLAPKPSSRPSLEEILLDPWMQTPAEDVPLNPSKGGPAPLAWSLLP
Experiment [12] deals with Serine/threonine-protein kinase WNK2 (Homo sapiens) (UniProt Q9Y3S1). As to the kind of experiment: Inhibition of human WNK2 (166 to 489 residues) assessed as residual activity at 1 uM using myelin basic protein as substrate measured after 40 mins in presence of [gamma33P]ATP by scintillation counting method relative to control.
Chain of Serine/threonine-protein kinase WNK2 (Homo sapiens) (Q9Y3S1 whole entry, the tested form may be a part): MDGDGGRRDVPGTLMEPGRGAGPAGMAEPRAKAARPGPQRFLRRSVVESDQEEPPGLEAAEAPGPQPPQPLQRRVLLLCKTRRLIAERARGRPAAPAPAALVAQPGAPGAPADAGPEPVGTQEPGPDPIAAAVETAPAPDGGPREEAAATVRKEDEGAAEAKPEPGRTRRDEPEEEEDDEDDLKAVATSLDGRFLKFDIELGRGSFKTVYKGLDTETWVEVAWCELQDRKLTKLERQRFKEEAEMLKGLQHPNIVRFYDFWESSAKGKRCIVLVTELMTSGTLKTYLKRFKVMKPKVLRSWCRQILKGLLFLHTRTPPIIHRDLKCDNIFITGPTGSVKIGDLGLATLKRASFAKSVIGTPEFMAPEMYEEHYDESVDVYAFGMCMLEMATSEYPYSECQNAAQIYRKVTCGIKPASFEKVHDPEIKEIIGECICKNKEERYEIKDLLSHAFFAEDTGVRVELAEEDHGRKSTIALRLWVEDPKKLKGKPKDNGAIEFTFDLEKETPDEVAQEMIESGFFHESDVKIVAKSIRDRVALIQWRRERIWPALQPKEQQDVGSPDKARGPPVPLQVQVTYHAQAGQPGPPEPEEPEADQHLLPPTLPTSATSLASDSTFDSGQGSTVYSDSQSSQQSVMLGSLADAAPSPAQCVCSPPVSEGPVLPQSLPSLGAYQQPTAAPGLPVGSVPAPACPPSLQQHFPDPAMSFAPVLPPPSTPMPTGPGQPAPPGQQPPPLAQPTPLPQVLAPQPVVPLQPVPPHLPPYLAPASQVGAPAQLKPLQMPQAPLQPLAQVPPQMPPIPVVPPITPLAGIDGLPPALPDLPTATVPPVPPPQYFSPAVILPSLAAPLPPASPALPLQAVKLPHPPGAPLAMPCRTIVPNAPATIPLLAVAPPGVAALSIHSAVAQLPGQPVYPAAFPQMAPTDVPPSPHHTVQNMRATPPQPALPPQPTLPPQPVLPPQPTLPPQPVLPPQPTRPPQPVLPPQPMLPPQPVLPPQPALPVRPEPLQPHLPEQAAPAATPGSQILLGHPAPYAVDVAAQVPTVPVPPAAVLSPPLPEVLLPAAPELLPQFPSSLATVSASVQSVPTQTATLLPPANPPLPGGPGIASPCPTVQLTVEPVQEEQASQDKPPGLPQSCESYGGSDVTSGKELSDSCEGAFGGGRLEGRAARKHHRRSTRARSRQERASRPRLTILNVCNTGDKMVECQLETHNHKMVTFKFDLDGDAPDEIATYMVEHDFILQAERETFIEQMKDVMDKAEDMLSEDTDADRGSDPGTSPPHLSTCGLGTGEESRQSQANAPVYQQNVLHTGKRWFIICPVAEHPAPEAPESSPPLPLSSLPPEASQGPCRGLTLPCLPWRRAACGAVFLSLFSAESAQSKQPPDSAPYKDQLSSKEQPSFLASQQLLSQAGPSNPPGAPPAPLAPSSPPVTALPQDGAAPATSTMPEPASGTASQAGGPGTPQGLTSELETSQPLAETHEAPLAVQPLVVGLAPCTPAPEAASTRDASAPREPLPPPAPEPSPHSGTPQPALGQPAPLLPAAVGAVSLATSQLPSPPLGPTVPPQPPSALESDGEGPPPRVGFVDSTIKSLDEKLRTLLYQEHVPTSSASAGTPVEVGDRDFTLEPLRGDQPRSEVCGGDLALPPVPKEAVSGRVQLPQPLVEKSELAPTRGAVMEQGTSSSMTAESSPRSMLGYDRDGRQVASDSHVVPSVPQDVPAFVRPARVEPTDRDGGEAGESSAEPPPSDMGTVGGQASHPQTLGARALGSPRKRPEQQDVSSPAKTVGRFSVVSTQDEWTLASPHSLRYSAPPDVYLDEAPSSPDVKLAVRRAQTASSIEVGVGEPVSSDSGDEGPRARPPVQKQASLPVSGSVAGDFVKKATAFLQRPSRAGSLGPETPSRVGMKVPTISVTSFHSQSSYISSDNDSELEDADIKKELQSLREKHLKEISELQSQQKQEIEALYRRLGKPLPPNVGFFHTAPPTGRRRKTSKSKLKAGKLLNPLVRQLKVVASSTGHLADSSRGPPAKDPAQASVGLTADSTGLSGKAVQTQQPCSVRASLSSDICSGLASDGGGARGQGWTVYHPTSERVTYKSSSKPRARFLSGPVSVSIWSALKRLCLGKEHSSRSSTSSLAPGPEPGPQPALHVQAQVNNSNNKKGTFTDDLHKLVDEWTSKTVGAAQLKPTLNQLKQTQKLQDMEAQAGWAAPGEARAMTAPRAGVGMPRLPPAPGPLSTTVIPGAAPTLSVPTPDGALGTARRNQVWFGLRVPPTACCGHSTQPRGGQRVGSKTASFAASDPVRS
For experiment [13], the system named is Tyrosine-protein kinase BTK (Homo sapiens), Q06187 [R28H]. As to the kind of experiment: Inhibition of recombinant full length human BTK R28H mutant assessed as residual activity at 1 uM using LSNLYHQGKFLQTFCGSPLYRRR as substrate incubated for 40 mins in presence of [gamma-33ATP] by scintillation counting based radiometry assay relative to control.
Chain of Tyrosine-protein kinase BTK (Homo sapiens), Q06187 [R28H] (Q06187 whole entry R28H): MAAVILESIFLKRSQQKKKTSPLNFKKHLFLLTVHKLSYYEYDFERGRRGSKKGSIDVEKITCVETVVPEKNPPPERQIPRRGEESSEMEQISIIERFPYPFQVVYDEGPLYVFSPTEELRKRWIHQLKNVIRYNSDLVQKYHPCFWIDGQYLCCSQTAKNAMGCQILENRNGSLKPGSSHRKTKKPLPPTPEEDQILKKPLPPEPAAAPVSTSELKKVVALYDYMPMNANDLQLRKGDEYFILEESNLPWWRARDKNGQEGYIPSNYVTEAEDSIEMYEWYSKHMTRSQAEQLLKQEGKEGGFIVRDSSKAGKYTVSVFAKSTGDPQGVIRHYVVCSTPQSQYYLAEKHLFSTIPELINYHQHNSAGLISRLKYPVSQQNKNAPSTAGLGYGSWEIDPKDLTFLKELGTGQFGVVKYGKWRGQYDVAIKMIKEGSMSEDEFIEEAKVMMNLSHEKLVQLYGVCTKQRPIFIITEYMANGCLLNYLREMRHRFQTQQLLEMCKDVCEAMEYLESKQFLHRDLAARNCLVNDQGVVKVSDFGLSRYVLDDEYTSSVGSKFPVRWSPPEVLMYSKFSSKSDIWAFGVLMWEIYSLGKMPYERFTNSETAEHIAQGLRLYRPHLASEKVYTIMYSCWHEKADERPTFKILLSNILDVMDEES
Experiment [14] relates to Epidermal growth factor receptor (Homo sapiens), P00533 [L858R,T790M]. As to the kind of experiment: Inhibition of recombinant human EGFR T790M/L858R mutant (696 to end residues) assessed as residual activity at 1 uM using poly(Glu, Tyr) 4:1 as substrate at 40 mins in presence of [gamma-33ATP] by scintillation counting based radiometry assay relative to control.
The target in experiment [15] is Serine/threonine-protein kinase TAO2 (Homo sapiens) (UniProt Q9UL54). Description: Inhibition of human TAO2 (1 to 320 residues) assessed as residual activity at 1 uM using myelin basic protein as substrate measured after 40 mins in presence of [gamma33P]ATP by scintillation counting method relative to control.
Experiment [16] deals with Dual specificity mitogen-activated protein kinase kinase 3 (Homo sapiens) (UniProt P46734). Description: Inhibition of recombinant human MKK3 assessed as residual activity at 1 uM by scintillation counting based radiometry assay relative to control.
Experiment [17] concerns the target Serine/threonine-protein kinase pim-3 (Homo sapiens) (UniProt Q86V86). As to the kind of experiment: Inhibition of recombinant human Pim3 (2 to end residues) assessed as residual activity at 1 uM using RSRHSSYPAGT as substrate measured after 40 mins in presence of [gamma33P]ATP by scintillation counting method relative to control.

In ChEMBL document CHEMBL4334438, “Discovery of novel glycogen synthase kinase-3α inhibitors: Structure-based virtual screening, preliminary SAR and biological evaluation for treatment of acute myeloid leukemia” (Eur J Med Chem, 2019) one finds Activity data, which are given here for two molecules.

Chain of Rhodopsin kinase GRK7 (Homo sapiens) (Q8WTQ7 whole entry): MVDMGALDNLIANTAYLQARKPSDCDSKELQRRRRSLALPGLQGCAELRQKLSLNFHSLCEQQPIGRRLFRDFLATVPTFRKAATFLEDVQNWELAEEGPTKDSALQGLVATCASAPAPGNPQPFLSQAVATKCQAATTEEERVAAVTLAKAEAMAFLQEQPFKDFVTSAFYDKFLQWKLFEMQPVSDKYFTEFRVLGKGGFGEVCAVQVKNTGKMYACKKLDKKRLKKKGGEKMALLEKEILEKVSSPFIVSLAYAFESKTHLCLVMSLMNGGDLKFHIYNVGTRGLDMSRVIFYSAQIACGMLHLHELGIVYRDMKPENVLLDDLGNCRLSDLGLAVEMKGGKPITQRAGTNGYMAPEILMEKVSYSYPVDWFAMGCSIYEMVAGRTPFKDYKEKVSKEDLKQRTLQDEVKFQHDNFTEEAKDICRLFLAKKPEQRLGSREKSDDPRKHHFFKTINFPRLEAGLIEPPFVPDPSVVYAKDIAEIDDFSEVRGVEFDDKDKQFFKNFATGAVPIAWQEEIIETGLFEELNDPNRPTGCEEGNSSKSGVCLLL

On to `N=C1NC(=O)/C(=C\c2ccc(-c3cccc([N+](=O)[O-])c3)o2)S1`, for which the Activity stood at 76% in experiment [1]; 106% in [2]; 79% in [3]; 96% in [4]; 57% in experiment [5]; 82% in experiment [6]. Besides, the Activity in experiment [7] is 98%; in experiment [8], 98%; in experiment [9] it was 93%; in experiment [10], 89%; in experiment [11] it was 6%; in [12] it was 88%. For the same molecule, the Activity in experiment [13] came to 94%; in [14], 89%; in [15], 79%; in experiment [16] it was 83%; in experiment [17], 21%.

Take `C=CCOC(=O)c1cc(-c2ccc(/C=C3/NC(=S)NC3=O)o2)ccc1Cl`: the Activity was found to be 90% in experiment [1]; 99% in [2]; 102% in experiment [3]; 98% in experiment [4]; 87% in experiment [5]; 100% in [6]. Moreover, the Activity in [7] was 92%; in experiment [8] it was 90%; in [9], 106%; in experiment [10], 97%; in experiment [11] it was 10%; in experiment [12] it was 85%. Also, the Activity in experiment [13] stood at 101%; in [14], 97%; in [15], 100%; in experiment [16] it was 90%; in [17], 33%.
